Experiments:
MCF7 (Breast carcinoma) = experiment: Cytotoxic activity on human tumor cell line MCF7; type: cell-based; conditions: dose to reduce survival to 50%
Experimental: (§1) Olylammonium hydrogen selenites hydrogen selenite with its cobalt and platinum complexes were investigated as potential selective, anticancer prodrugs. They were tested by using Ehrlich Acites Carcinoma (EAC) as a model system of mice cell tumor. These compounds were also Tested in vitro on human […] monolayer tumor cell lines: MCF7 (Breast carcinoma), HEPG2 (liver carcenoma), U 251 ([…]) and HCT116 (colon carcinoma).
(§2) The results of the cytotoxic activity on human tumor cell lines were determined according to the dose values of drug exposure for cell lines to reduce survival to 50% (Ic50). The experimental results recorded in Table (3).

HELA = experiment: Cytotoxic activity on human tumor cell line HELA; type: cell-based; conditions: dose to reduce survival to 50%
Experimental: as §1, §2

HCT116 (colon carcinoma) = experiment: Cytotoxic activity on human tumor cell line HCT116; type: cell-based; conditions: dose to reduce survival to 50%
Experimental: as §1, §2

[1] = Critical micelle concentration (CMC) and surface parameters of the surfactants; type: physicochemical; design: PC20: unit not given here
Description: That fact could be explained from the unique property of the metal complexes in water. That is the complexes retain its unity in their solutions, which increased their volume in the aqueous media and then repulsion is occurred between the hydrophobic chain and water molecules. […] The efficiency “PC20” increase with increasing molar ratio of methylene units. These due to the fact that the efficiency of adsorption at interfaces increase linearly with increase in the carbon atoms in hydrophobic group. In case of the prepared parent cationic surfactants by increasing the number methylene units Maximum surface excess Γmax increases, this due to migration of molecules to the water-air interface. The consequence increase of Γmax leads to crowdiness occurred at the interface which causing decrease in Minimum area per molecule Amin values. That is due to the minimum surface area decrease with increasing the hydrophobic chain length of the synthesized surfactant molecules. The standard free energies of micellization ΔG° mic and adsorption ΔG° ads values are always negative indicating the spontaneously of these two processes but there is more increase in negativity of ΔG° ads rather than those of micellization indicating the tendency of the molecules to be adsorbed at the interface.

[2] = tested on: Ehrlich ascites carcinoma (EAC) cells; experiment: Antitumor activity using Ehrlich ascites carcinoma (EAC), in vitro percentage of nonviable cells; type: cell-based, mice; conditions: NVC %
Experimental: as §1
Ehrlich ascites carcinoma cells as a model system was based on the finding that it is excellent tool for studying the biological behavior of malignant tumors and drug action with cells. A line of Ehrlich ascites carcinoma (EAC) which used in the present study had been kindly supplied from National Cancer Institute, Cairo, Egypt, and maintained in female Swiss albino mice through weekly […] transplantation of 2.5×10^6 tumor cells/mouse. EAC cells were obtained by needle aspiration with aseptic condition. The ascetic fluid was diluted with sterile saline so that 0.1 ml contains 2.5×10^6 cells counted microscopically using a haemocytometer. In vitro studying of these compounds antitumor activity was determined according to the percentage of nonviable cells (NVC %) which was calculated by the following equation NVC %=[number of NVC/total number of cells][…].

HEPG2 (liver carcenoma) = experiment: Cytotoxic activity on human tumor cell line HEPG2; type: cell-based; conditions: dose to reduce survival to 50%
Experimental: as §1, §2

[3] = tested on: sulphur reducing bacteria; experiment: Antibacterial activity against sulphur reducing bacteria, inhibition zone; type: cell-based
Description: The results of the synthesized cationic surfactants against sulphur reducing bacteria recorded in Table 4.

CCCCCCCC/C=C\CCCCCCCCN.O=[Se](O)O [IIa, olylammonium hydrogen selenite]
MCF7 (IC50) (MCF7 (Breast carcinoma)): does not reach to Ic50
HELA (IC50) (HELA): does not reach to Ic50
HCT116 (IC50) (HCT116 (colon carcinoma)): does not reach to Ic50
Δ Gads/Amin [1]: −46.8
ΠCMC [1]: 39 mN/m
CMC × 10−3 ([1]; critical micelle concentration, values × 10−3): 1.3
PC20 ([1]; efficiency): 3.8
Γmax × 10−11 ([1]; maximum surface excess, values × 10−11): 10.6 Mole/cm^2
A min ([1]; minimum area per molecule): 1.6 nm2
Δ Gads ([1]; standard free energy of adsorption): −67.7
Δ Gmic ([1]; standard free energy of micellization): −34.1
γCMC ([1]; surface tension at CMC): 33 mN/m
Percent nonviable cells ([2]; Conc. 25 μg/ml): 10%
Percent nonviable cells ([2]; Conc. 50 μg/ml): 20%
Percent nonviable cells ([2]; Conc. 100 μg/ml): 40%
HEPG2 (IC50) (HEPG2 (liver carcenoma)): does not reach to Ic50
Inhibition zone diameter [3]: 25 mm/mg sample

Source: patent US10118893B2, “Method of making complex nano particles and using the same to reduce cell viability” (Umm Al-Qura University, priority 2014, dated 2018)
